According to patent US7300947B2, “N-dihydroxyalkyl-substituted 2-oxo-imidazole derivatives” (Banyu Pharmaceutical Co., Ltd., priority 2005, dated 2007):
Where a name gives a salt, the structure may show the parent alone.

Assay: Metabolic stability test using human liver microsome
Format: in vitro ADME
Conditions: human liver microsome 0.25 mg protein/mL, 1 μM test compound, 37° C., after 30 minutes' reaction
Procedure: Pharmacological Test Example 3 (Metabolic Stability Test) Metabolic stability of test compounds was examined using human liver microsome. A 100 mM potassium phosphate buffer (pH 7.4) comprising 10 mM [MUT], 1.0 mM NADP^+, 10 units/mL [MUT] DH, 3.0 mM MgCl2 and 0.25 mg protein/mL of human liver microsome was prepared, each 392 μL of which was poured into plural vessels and preincubated at 37° C. for 5 minutes. […] At the initiation time and 30 minutes thereafter of the reaction, 150 μL of each reaction solution was added to 450 μL of ethanol to suspend the reaction, followed by centrifugal separation (12,000 g, 12 minutes, 4° C.). Resulting supernatant was analyzed with LC/MS/MS. Based on the peak area of the test compound in each sample at the initiating time of the reaction as 100%, the test compound's residual ratio in the sample after 30 minutes' reaction was calculated. Residual ratio(%)= [peak area(after 30 minutes' reaction)/ peak area(0 minute's reaction)]×100.

Compound: CC(O)(CO)Cn1c(=O)n(C2CCN(CC3CCCCC34CC4)CC2)c2ccccc21 (single isomer, unassigned) [Example 4, 1-[(2S or 2R)-2,3-dihydroxy-2-methylpropyl]-3-{1-[(4S)-spiro[2.5]oct-4-ylmethyl]piperidin-4-yl}-1,3-dihydro-2H-benzimidazol-2-one(2R,3R)-3-carboxy-2,3-dihydroxypropionic acid salt]
- Residual Ratio: 72%
